We go through 1 molecule from patent US8959984B2, “Proteome-wide quantification of small molecule binding to cellular target proteins” (priority 2007, dated 2015).

SMILES strings stand for the structures. pKi: −log10 of the molar value.

Assay in all cases: binding to VI16742 beads (HeLa lysate, SILAC MS)
The target of test [1] is T1, MAP2K1 (IPI00219604) (Homo sapiens, UniProt Q02750).
T1 construct: endogenous in cells; host or cells: HeLa S3
The source says: (§1) In an alternative implementation of the chemical proteomic approach according to the invention, the broadly-selective pyrido[2,3-d]pyrimidine-based kinase inhibitor VI16742 has been used for affinity capture (FIG. 10a). […] As shown by gene ontology analysis, the corresponding molecular functions were highly over-represented in proteins specifically retained by the inhibitor resin (FIG. 10b).

The target in test [2] is T2, ACLY (IPI00021290) (Homo sapiens, UniProt P53396).
T2 construct: endogenous in cells; host or cells: HeLa S3
T2 sequence (P53396 1-1101): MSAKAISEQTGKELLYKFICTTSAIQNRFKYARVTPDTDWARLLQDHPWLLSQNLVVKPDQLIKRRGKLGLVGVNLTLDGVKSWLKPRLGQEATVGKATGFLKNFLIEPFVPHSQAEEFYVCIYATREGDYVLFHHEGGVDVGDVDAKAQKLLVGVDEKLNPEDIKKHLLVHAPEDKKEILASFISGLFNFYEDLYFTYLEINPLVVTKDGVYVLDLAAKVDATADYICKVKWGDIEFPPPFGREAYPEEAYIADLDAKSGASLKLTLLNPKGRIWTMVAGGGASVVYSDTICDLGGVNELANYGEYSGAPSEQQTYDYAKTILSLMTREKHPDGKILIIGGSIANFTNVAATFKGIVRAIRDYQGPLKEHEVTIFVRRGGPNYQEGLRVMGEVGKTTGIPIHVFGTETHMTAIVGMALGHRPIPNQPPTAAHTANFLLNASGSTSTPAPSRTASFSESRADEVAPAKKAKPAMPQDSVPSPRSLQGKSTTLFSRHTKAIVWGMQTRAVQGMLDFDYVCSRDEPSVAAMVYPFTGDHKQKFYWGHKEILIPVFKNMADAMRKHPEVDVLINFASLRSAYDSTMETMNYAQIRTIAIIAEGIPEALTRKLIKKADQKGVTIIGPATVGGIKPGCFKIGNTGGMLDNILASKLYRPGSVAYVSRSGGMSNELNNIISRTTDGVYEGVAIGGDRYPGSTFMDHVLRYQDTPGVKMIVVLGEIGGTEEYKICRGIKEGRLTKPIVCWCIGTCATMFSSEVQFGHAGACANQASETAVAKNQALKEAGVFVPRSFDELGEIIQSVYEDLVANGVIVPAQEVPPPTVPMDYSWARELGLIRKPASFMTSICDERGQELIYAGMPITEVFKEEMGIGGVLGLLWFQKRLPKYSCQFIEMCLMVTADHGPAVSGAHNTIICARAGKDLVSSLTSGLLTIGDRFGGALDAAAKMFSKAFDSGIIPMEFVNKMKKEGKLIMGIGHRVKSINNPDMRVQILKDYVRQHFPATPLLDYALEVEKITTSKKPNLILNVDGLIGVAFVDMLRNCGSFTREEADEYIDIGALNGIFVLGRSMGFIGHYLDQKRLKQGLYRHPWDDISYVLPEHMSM
Excerpt: as §1

Test [3] concerns the target T3, MAP2K4 (IPI00789335) (Homo sapiens, UniProt P45985).
T3 construct: endogenous in cells; host or cells: HeLa S3
T3 sequence (P45985 1-399): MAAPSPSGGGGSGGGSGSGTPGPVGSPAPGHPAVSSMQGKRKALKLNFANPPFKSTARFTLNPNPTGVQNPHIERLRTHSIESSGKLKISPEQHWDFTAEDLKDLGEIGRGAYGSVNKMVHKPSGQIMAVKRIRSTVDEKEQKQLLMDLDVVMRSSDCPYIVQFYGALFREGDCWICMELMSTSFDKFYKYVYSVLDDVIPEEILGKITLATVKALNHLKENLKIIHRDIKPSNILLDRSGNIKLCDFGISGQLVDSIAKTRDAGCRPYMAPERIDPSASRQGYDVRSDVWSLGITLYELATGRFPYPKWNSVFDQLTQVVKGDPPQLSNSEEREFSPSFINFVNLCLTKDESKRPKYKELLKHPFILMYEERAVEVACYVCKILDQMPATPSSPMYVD
Excerpt: as §1

Test [4] has as its target T4, MET (IPI00294528) (Homo sapiens, UniProt P08581).
T4 construct: endogenous in cells; host or cells: HeLa S3 cell lysate
Excerpt: as §1

Test [5] has as its target T5, MASTL (IPI00074258) (Homo sapiens, UniProt Q96GX5).
T5 construct: endogenous in cells; host or cells: HeLa S3
T5 sequence (Q96GX5 1-879): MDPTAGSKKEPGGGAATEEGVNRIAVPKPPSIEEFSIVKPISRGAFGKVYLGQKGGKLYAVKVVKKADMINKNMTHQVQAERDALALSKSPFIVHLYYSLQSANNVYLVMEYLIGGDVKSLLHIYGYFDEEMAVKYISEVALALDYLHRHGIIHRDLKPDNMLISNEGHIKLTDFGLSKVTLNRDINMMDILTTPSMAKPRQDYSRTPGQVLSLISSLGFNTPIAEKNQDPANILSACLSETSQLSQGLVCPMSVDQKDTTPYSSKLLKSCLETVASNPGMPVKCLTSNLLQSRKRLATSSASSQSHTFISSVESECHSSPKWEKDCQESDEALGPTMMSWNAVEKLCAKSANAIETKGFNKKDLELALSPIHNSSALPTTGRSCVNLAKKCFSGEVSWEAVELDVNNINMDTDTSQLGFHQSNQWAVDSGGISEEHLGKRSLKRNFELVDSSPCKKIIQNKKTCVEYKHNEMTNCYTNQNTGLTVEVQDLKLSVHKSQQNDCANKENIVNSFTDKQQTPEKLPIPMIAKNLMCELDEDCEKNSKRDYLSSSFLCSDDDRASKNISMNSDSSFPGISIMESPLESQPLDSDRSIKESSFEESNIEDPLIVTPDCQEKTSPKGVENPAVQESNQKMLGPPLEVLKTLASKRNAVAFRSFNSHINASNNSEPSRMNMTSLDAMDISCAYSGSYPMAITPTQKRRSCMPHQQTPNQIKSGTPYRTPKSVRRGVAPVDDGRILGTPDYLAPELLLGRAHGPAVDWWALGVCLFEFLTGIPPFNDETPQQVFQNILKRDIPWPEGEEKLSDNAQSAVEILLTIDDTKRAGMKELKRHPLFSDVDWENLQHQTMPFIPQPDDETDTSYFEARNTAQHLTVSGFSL
Excerpt: as §1

The mark [6] stands for this setting: control beads vs first incubation.

T1 sequence (Q02750 whole entry): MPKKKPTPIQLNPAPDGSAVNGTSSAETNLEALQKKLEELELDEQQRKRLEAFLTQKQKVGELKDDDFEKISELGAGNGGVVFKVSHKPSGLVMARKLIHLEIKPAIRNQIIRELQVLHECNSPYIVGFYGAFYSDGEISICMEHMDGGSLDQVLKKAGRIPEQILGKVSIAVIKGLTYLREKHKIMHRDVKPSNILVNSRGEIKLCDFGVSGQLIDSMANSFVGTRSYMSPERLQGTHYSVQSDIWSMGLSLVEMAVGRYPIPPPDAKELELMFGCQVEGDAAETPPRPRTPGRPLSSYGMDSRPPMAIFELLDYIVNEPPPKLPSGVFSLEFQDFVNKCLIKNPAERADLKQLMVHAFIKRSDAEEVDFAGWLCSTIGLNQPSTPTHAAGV
T4 sequence (P08581 25-1390): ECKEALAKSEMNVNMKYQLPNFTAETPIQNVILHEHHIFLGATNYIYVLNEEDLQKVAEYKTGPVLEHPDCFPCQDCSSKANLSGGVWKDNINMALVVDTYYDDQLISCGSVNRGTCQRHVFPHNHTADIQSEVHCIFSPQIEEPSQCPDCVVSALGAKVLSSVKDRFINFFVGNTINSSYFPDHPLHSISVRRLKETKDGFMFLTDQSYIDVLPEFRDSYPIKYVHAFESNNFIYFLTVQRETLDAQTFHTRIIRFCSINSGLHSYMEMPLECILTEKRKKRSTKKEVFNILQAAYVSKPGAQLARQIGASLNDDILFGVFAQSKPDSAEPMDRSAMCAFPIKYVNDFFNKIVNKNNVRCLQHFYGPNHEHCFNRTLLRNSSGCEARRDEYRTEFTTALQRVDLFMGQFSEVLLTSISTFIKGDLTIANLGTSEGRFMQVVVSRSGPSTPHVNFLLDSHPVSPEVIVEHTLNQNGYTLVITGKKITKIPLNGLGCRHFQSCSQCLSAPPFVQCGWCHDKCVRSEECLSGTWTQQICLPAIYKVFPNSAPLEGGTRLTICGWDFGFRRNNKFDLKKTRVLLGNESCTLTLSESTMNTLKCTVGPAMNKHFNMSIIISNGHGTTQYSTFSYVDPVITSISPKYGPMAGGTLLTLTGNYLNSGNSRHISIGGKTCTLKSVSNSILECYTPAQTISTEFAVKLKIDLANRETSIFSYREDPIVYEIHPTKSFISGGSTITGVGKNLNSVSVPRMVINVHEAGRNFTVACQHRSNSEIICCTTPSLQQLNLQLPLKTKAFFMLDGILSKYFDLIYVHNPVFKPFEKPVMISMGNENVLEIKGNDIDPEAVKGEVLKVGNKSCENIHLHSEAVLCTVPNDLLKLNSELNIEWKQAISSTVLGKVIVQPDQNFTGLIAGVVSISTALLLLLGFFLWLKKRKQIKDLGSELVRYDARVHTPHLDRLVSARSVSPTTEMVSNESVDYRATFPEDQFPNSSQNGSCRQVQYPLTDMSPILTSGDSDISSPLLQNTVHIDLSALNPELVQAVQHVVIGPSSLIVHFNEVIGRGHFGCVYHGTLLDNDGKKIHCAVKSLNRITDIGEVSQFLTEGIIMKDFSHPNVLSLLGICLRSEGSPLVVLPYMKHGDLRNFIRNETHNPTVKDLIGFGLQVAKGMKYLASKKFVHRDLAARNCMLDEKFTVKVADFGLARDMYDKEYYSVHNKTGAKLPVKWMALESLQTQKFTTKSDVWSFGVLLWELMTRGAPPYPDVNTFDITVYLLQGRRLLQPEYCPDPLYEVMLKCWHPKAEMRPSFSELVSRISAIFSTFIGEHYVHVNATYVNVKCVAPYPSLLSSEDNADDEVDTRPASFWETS

In the case of `CC(C)n1c(=O)ccc2cnc(Nc3ccc(OCCN)cc3)nc21` [V16742], the “r (5 h/2.5 h INC. TIME)” value worked out at 1.68 in test [1] (5 h vs 2.5 h incubation time) and 1.98 in test [2] (5 h vs 2.5 h incubation time). Besides, the “rAVERAGE (CTRL/1 INC)” value is 0.07 in test [1] (setting [6]); 0.06 in test [2] (setting [6]); 0.06 in test [3] (setting [6]); 0.08 in test [4] (setting [6]); 0.09 in test [5] (setting [6]). For the same molecule, the negative-log Ki (pKi) is 3.75 in test [1] (immobilized VI16742); 3.79 in test [2] (immobilized VI16742); 3.89 in test [3] (immobilized VI16742); 4.02 in test [4] (immobilized VI16742); 3.96 in test [5] (immobilized VI16742). Further, the “rAVERAGE (2 INC/1 INC)” value in test [1] (second vs first incubation) came to 0.78; in test [2] (second vs first incubation), 0.76; in test [3] (second vs first incubation), 0.71; in test [4] (second vs first incubation), 0.65; in test [5] (second vs first incubation), 0.68. Also, in test [2] (3 mg vs 1 mg lysate), the “r (3 MG/1 MG LYSATE)” value came to 3.59.

For orientation: pKi means −log10 of the Ki, conventionally taken in molar units. High values mean a low Ki, low ones a high Ki.
